From patent US11793782B2, “Therapeutic agents for neurodegenerative diseases” (priority 2017, dated 2023)

Tests used:
[1] = system: ataxia with oculomotor apraxia type 4 patients; test: Case study, ataxia with oculomotor apraxia type 4; format: in vivo, human; conditions: AOA4 youngest sibling; on treatment
Source text: In this case study, four patients (male siblings) suffered from, and were later diagnosed with, ataxia with oculomotor apraxia type 4. The older three siblings […], at the time of disease onset. […] The older siblings began treatment with acetyl-leucine […], respectively, and have been on the treatment for approximately four years. No long-term clinical data is available for these three patients.
The youngest sibling was […] at the time of onset. […] No long-term clinical data is available for the youngest sibling.

[2] = system: Npc1−/− and Npc1+/+ mice; test: Gait analysis (CatWalk), NPC mouse study; format: in vivo; conditions: 0.1 g/kg from weaning, eight weeks of age
Method: Separate groups of Npc1^−/− and Npc1^+/+ mice were left untreated, as controls. Gait analysis was performed on mice at eight weeks of age using a CatWalk®15.0 system according to manufacturer's instructions (Noldus, Nottingham, UK). Five runs were recorded per animal. CatWalk® parameters measured were: • 1. Stand Mean: average duration (s) of paws in contact with glass plate; • 2. Step Cycle: duration (s) between two consecutive contacts of the same paw; • 3. Duty Cycle: percentage of time paws in contact with plate compared with time to complete a step cycle; • 4. Step Sequence (AB): percentage of time spent walking in LF-RH-RF-LH alternating pattern (LF: left front; RH: right hind; RF: right front; LH left hind); • 5. Cadence: step per seconds in a trial; • 6. Diagonal Support: percentage of time with simultaneous contact of diagonal paws with the glass plate (RF&LH or RH&LF). Motor Function Analysis

Structure (SMILES): CC(=O)NC(CC(C)C)C(=O)O (racemic) [acetyl-DL-leucine]
- Mother's report compared to older siblings at each age [1]: improved fine motor skills and improved speech
- Gait vs untreated littermates [2]: significantly improved gait
